Results from US8222202B2 (priority 2006, dated 2012).
Read-outs that look alike come from different tables or passages of the source. Starred links: 1 amine or outer side, 2 acyl side, 3 side chain; linkers in the order of their positions; H or OH if unused. Positions of bridges follow the written chain, without caps; N, C: chain ends. Non-standard residues stand in square brackets, D forms with d. Residues, ends and D or L forms follow the SMILES beside them. Orn(Me) = CN(CCC[C@H](N[*:1])C(=O)[*:2])[*:3]; Orn(iPr) = CC(C)NCCC[C@H](N)C(=O)O; X1 = CCNCCC[C@H](N[*:1])C(=O)[*:2]; Orn(Pr) = CCCNCCC[C@H](N)C(=O)O

Assays:
hV1a receptor = molecular target: T1, hV1a receptor (Homo sapiens, UniProt P37288); test: hV1a receptor transcriptional reporter (luciferase) agonist assay; type: cell-based
T1 construct: expressed in transfected cells; host or cells: HEK-293
T1 sequence (P37288 whole entry): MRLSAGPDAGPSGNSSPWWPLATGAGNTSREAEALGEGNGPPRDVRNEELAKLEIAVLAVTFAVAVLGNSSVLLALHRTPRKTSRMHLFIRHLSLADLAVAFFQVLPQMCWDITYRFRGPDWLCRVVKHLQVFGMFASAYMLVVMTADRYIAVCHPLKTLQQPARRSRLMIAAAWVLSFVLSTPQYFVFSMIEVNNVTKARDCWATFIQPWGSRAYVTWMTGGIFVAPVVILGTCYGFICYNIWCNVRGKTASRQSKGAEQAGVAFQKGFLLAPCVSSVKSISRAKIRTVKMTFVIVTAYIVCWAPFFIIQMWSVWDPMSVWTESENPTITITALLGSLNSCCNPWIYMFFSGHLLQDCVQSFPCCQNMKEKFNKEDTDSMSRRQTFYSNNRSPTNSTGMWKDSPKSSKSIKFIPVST

[1] = system: anaesthetised Sprague-Dawley male rats; test: in vivo duration of action, blood pressure test in anaesthetised rats; parameters: species or system rat; conditions: ratio of decay rate of diastolic blood pressure response, AVP 0.1 nmol/kg i.v. to equieffective dose of compound; dibenamine-pretreated rats
Method: Blood pressure tests were carried out on anaesthetised Sprague-Dawley male rats (weighing 270-300 g) with catheterised jugular vein and carotid artery. The catheterised carotid artery was used to continuously monitor blood pressure and the jugular vein was used for administration of the compounds tested. Rats received intravenous injections of dibenamine prior to dosing to enhance their responsiveness to V1a receptor agonists (cf. Dekanski, J., Br. J. Pharmacol. 1952, 7, 567-572). […] Dosing intervals were set as time for the blood pressure to decrease to a stable baseline.
Determination of duration of action was based on the decay rate of diastolic arterial blood pressure transient increase. Specifically, for an exponential decay of plasma concentration, it can be shown that, if the response is measured beyond the distribution phase, the rate of decay near the EC50 is linear and inversely proportional to the elimination half-life (Rowland, M. and Tozer, T. in “Clinical Pharmacokinetics, Concepts and Applications”, 3rd ed., Lippincott Williams & Wilkins, Philadelphia, 1995).

[2] = molecular target: T2, human oxytocin (hOT) receptor (Homo sapiens, UniProt P30559); test: luciferase-based transcriptional reporter assay, selectivity hOT versus hV1a; type: cell-based
T2 construct: expressed in transfected cells
T2 sequence (P30559 1-389): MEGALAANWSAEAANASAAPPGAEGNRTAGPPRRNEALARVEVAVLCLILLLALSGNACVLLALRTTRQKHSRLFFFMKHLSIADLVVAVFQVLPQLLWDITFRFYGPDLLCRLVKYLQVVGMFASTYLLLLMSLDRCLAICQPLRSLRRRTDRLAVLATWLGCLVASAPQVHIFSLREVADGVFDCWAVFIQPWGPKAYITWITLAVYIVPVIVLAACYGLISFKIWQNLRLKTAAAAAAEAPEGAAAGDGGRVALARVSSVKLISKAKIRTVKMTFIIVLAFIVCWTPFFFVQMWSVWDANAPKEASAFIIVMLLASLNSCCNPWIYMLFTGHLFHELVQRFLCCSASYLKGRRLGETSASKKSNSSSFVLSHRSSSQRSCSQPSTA

[3] = HEK-293 cells transiently transfected with hV1a receptor, 5 hours exposure, geometric mean, read-out: EC50 hV1a receptor
[4] = class symbol, agonist efficacy at hOT receptor compared to AVP

Row | EC50 (hV1a receptor; [3]) | SMILES | EC50 (hV1a receptor) | in vivo duration relative to AVP [1] | selectivity hOT/hV1a ([2]; EC50 ratio) | selectivity hOT/hV1a [2] | selectivity hOT/hV1a [2, 4]
1 | – | CC[C@H](C)[C@@H]1NC(=O)[C@H](Cc2ccccc2)NC(=O)[C@@H](N)CSSC[C@@H](C(=O)N2CCC[C@H]2C(=O)N[C@@H](CCCNC)C(=O)NCC(N)=O)NC(=O)[C@H](CC(N)=O)NC(=O)[C@H](CCC(N)=O)NC1=O [Compound 39] (H-CFIQNCP[Orn(Me)]G-NH2; disulfide 1-6; N-terminus and C-terminus assumed) | 0.21 nM | 1.9 | 178 | – | –
2 | – | CCCNCCC[C@H](NC(=O)[C@@H]1CCCN1C(=O)[C@@H]1CSSC[C@H](N)C(=O)N[C@@H](Cc2ccccc2)C(=O)N[C@@H]([C@@H](C)CC)C(=O)N[C@@H](CCC(N)=O)C(=O)N[C@@H](CC(N)=O)C(=O)N1)C(=O)NCC(N)=O [Compound 40] (H-CFIQNCP[Orn(Pr)]G-NH2; disulfide 1-6; N-terminus and C-terminus assumed) | 0.27 nM | 2.0 | 88 | – | –
3 | – | CC[C@H](C)[C@@H]1NC(=O)[C@H](Cc2ccccc2)NC(=O)[C@@H](N)CSSC[C@@H](C(=O)N2CCC[C@H]2C(=O)N[C@@H](CCCNC(C)C)C(=O)NCC(N)=O)NC(=O)[C@H](CC(N)=O)NC(=O)[C@H](CC(N)=O)NC1=O [Compound 41] (H-CFINNCP[Orn(iPr)]G-NH2; disulfide 1-6) | 0.98 nM | 2.6 | – | 53 | –
4 | 2.41 nM | CC[C@H](C)[C@@H]1NC(=O)[C@H](Cc2ccccc2)NC(=O)[C@@H](N)CSSC[C@@H](C(=O)N2CCC[C@H]2C(=O)N[C@@H](CCCNC)C(=O)NCC(N)=O)NC(=O)[C@H](CC(N)=O)NC(=O)[C@H](CC(N)=O)NC1=O [Compound 46] (H-CFINNCP[Orn(Me)]G-NH2; disulfide 1-6; N-terminus and C-terminus assumed) | – | 2.1 | – | – | + (selective hV1a receptor agonist; EC50 hOT/hV1a ratio not determined due to very low agonist efficacy (<30% compared to AVP) at the hOT receptor)
5 | 0.99 nM | CCNCCC[C@H](NC(=O)[C@@H]1CCCN1C(=O)[C@@H]1CSSC[C@H](N)C(=O)N[C@@H](Cc2ccccc2)C(=O)N[C@@H]([C@@H](C)CC)C(=O)N[C@@H](CC(N)=O)C(=O)N[C@@H](CC(N)=O)C(=O)N1)C(=O)NCC(N)=O [Compound 47] (H-CFINNCP[X1]G-NH2; disulfide 1-6; N-terminus and C-terminus assumed) | – | 1.6 | – | – | + (selective hV1a receptor agonist; EC50 hOT/hV1a ratio not determined due to very low agonist efficacy (<30% compared to AVP) at the hOT receptor)
6 | 1.52 nM | CCCNCCC[C@H](NC(=O)[C@@H]1CCCN1C(=O)[C@@H]1CSSC[C@H](N)C(=O)N[C@@H](Cc2ccccc2)C(=O)N[C@@H]([C@@H](C)CC)C(=O)N[C@@H](CC(N)=O)C(=O)N[C@@H](CC(N)=O)C(=O)N1)C(=O)NCC(N)=O [Compound 50] (H-CFINNCP[Orn(Pr)]G-NH2; disulfide 1-6; N-terminus and C-terminus assumed) | – | 2.4 | 43 | – | –
7 | – | NCCCC[C@H](NC(=O)[C@@H]1CCCN1C(=O)[C@@H]1CSSC[C@H](NC(=O)CNC(=O)CNC(=O)CN)C(=O)N[C@@H](Cc2ccc(O)cc2)C(=O)N[C@@H](Cc2ccccc2)C(=O)N[C@@H](CCC(N)=O)C(=O)N[C@@H](CC(N)=O)C(=O)N1)C(=O)NCC(N)=O [terlipressin, reference compound] (H-GGGCYFQNCPKG-NH2; disulfide 4-9) | 82.1 nM | 9.1 | – | – | + (selective hV1a receptor agonist; EC50 hOT/hV1a ratio not determined due to very low agonist efficacy (<30% compared to AVP) at the hOT receptor)
